Data: patent publication US5725870A, “Methods, composites and articles for contraception” (priority 1996, dated 1998)
Values after ≈ are worked out from the molar mass of the structure shown. Values joined by “and” are separate entries in the source; they are usually repeats but may differ in a detail not shown here. Equal entries are not always repeated. Where two headings read alike, the source gives them in different places.

Columns and labels:
Lactobacillus gasseri = assay: Assay of vaginal lactobacillus growth; assay type: cell-based
Description: Cysteamine was screened with regard to its potential cytotoxicity toward normal vaginal flora. Growth of vaginal lactobacillus was used as a measure of this effect.
Lactobacillus gasseri, obtained from the American Type Culture Collection (Rockville, Md.) is cultured under anaerobic conditions at 37° in the presence of test agent or no additions (control). Beginning at 120 minutes after the start of incubation and at 20 minute intervals, for a total length of 240 minutes, samples are removed from the incubation flasks, and the absorbance of each suspension at 550 nm is determined, as an estimate of cell density. Data are fit to the equation, Ln (Absorbance)=a+b (Time), where a is the absorbance at 0 time, b is the slope of the curve, and time is measured in minutes. The doubling time (TD) is calculated from the equation TD =(Ln 2)/b. Values are given as the doubling time of bacterial growth, together with the 90% confidence limits. Inhibition of bacterial growth by a test agent can be directly calculated from the reciprocal values of the doubling time (i.e., 75% inhibition of the reciprocal of the calculated doubling time is equal to 75% inhibition of bacterial growth).
Dose-response curves are produced by determining the doubling time of the culture in the presence of each of several concentrations of test agent, the exact range of which is determined by the results of the screening test that is described above. The concentration of test agent that inhibits the growth of lactobacillus by 50% (IC50) is determined from the calculated doubling time at each concentration of test agent, with curve-fitting software (TableCurve 2D, version 3.02, Jandel Scientific).

[1] = target: T1, sheep testicular hyaluronidase (Ovis aries, UniProt A0ACI6R774); assay: Hyaluronidase inhibition assay; assay type: biochemical; conditions: for Absorbance at 545 nm, Reaction: blank 0.0463
T1 construct: soluble form of GPI-anchored sperm protein
T1 sequence (A0ACI6R774 34-551): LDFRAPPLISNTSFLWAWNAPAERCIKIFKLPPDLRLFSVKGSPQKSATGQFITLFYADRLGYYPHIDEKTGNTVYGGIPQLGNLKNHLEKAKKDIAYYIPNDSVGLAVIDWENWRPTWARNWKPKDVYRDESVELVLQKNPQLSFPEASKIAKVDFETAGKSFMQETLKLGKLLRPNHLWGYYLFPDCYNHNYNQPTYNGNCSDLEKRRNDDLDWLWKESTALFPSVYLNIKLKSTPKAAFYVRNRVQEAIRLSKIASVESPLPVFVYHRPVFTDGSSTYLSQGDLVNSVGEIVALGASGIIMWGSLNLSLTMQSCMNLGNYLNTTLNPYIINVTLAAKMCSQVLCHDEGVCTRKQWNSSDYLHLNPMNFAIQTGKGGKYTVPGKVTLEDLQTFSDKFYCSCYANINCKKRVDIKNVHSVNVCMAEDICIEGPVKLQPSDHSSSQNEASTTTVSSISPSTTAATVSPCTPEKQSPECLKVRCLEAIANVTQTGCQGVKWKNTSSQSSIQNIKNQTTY
Description: Hyaluronidase activity is quantified by measuring the extent of hyaluronic acid hydrolysis. This is measured by determining the concentration of N-acetylglucosamine-reactive material, resulting from enzyme action.
Reaction mixtures contain the following, in a total volume of 0.25 ml: 0.1M sodium acetate, containing 0.15M NaCl, pH 5.5 (Acetate buffer); 7.2 Units sheep testicular hyaluronidase (Sigma, Type III; cat. no. H-2251), from a stock solution dissolved in the Acetate buffer; 0.3 mg/ml hyaluronic acid (Sigma, from bovine vitreous humor, cat-no. H-7630).
The test compound is screened at a concentration of 1 mg/ml, unless aqueous solubility is limited. The enzyme is preincubated with the test agent for 10 minutes prior to starting the reaction by adding hyaluronic acid. Enzyme reactions are determined by the method of Aronson and Davidson (J. Biol. Chem., vol. 242, pp. 437-440 (1967)). Incubations are carried out for 30 minutes at ambient temperature. Reaction product is determined colorimetrically after reaction with p-dimethylaminobenzaldehyde (Reissig et al., J. Biol. Chem., vol. 217, pp. 959-966 (1955)). The absorbance of the resultant adduct is immediately determined at 545 nm.
Differences are determined between absorbencies for reactions run in the presence and absence of hyaluronidase (blank, in which hyaluronidase is added after terminating reaction). This is compared to a standard curve of known amounts of N-acetylglucosamine that were treated identically to enzyme reaction mixtures, and converted to μmole equivalents of N-acetylglucosamine. The data are reported as % inhibition, compared to control. A dose-response curve is generated at several concentrations of test compound if significant inhibition is obtained at the screening concentration.
(§1) IC50 values (those concentrations of inhibitor that produce 50% inhibition under the conditions of the assay) are determined by analyzing enzyme activity as a function of inhibitor concentration, with curve-fitting software (TableCurve 2D, version 3.02; Jandel Scientific).

HIV = assay: Activity against HIV, test not described; assay type: cell-based
Source text: (§2) and may be prepared by the H2 O2 oxidation of cysteamine (Mills, Jr. et al, J. Am. Chem. Soc., vol. 62, 1173 (1940); and Barnett, J. Chem. Soc., 1944, 5).

[2] = Cytotoxicity in HIV experiments, test not described; assay type: cell-based
Source text: as §2

motile spermatozoa = assay: Assessment of spermicidal activity (sperm motility, Sander and Cramer); assay type: cell-based
Description: The method is based on that originally described by Sander and Cramer (F. V. Sander and S. D. Cramer. Human Fertil., vol. 6, pp. 134 (1941)). Apparent spermicidal activity of the test agents are compared to that of a control preparation of nonoxynol-9 (N9).
For the screening of spermicidal activity of a test agent, a solution of 50 mg/ml is prepared in 0.9% NaCl. This solution is adjusted to pH 7.0 with either HCl or NaOH and is further diluted in 0.9% NaCl to concentrations of 25 mg/ml, 10 mg/ml, 5 mg/ml, and 2.5 mg/ml. N9 is prepared as a solution of 100 μg/ml in 0.9% NaCl.
The agents are tested by mixing 40 μl of freshly ejaculated semen with 200 μl of test agent at each concentration. Just prior to and 30 seconds after mixing, the percentage of motile spermatozoa is determined by microscopic observation (400×). If 90-100% inhibition of motility is obtained at the lowest concentration tested, the experiment is repeated with a different range of concentrations, the highest concentration being 2.5 mg/ml. A dose-response curve is constructed.

Human acrosin = target: T2, Human acrosin (Homo sapiens, UniProt P10323); assay: Acrosin inhibition assay; assay type: biochemical; conditions: for Acrosin Activity: control 5.4 ± 0.14; for Acrosin Inhibitor (active yes/no): screened at 1 mg/ml
T2 construct: human acrosin is isolated from washed spermatozoa from frozen semen; from tissue; host or cells: washed human spermatozoa from frozen semen; acid extract, ultrafiltration, Sephadex G-150 pool
T2 sequence (P10323 43-343 limits assumed): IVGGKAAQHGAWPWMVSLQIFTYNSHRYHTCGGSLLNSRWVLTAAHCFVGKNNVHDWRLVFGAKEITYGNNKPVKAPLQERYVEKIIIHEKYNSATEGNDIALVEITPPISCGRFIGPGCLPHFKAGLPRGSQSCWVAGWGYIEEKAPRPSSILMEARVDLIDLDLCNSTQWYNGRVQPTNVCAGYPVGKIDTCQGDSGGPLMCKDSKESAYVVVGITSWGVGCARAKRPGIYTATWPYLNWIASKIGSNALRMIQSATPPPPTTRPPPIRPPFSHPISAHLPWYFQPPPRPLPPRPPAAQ
T2 sequence (P10323 20-42 partner limits assumed): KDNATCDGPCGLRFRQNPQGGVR
Description: Human acrosin activity is measured by following the progression of hydrolysis of N-α-benzoyl-L-arginine ethyl ester (BAEE) spectrophotometrically at 253 nm. Enzyme isolation, partial purification and measurement are carried out by methods described in detail by Anderson et al. (Biochem. J., vol. 199, pp. 307-316 (1981)). Briefly, human acrosin is isolated from washed spermatozoa from frozen semen by extraction with 66 mM acetic acid, pH 2.8. The extract is concentrated by ultrafiltration (Amicon PM 10) and applied to a column that contains Sephadex G-150 (superfine); elution is carried out with 55 mM acetic acid that contains 0.1M NaCl. The eluted volume that contains acrosin activity is pooled and used as the source of enzyme.
Enzyme reaction mixtures contain the following: 50 mM sodium phosphate, pH 7.5 (Anderson et al, Arch. Biochem. Biophys., vol. 241, pp. 509-520 (1985)); Enzyme-containing protein (3-5 mIU, where 1 mIU is the amount of enzyme required to hydrolyze 1 nmole BAEE per min); 0.05 mM BAEE; with or without inhibitor, in a total volume of 1.0 ml.
The test compound is screened at a concentration of 1 mg/ml, unless solubility is limited. The enzyme is preincubated with the test agent for 5 minutes prior to starting the reaction by adding BAEE. Reaction blanks, in which either substrate or enzyme has been eliminated, are run in parallel to the reactions.
The rate of change in absorbance at 253 nm is determined. The change in absorbance that corresponds to 1 μmole of BAEE (in a total volume of 1.0 ml) hydrolyzed is taken as 1.15.
The enzyme activity in the presence of each agent is compared with that for the control reaction (no test agent added). The data are reported as % inhibition. […] A dose-response curve is generated at several concentrations of test compound if significant inhibition is obtained at the screening concentration.
Reversibility of acrosin inhibition is determined by the method of Ackermann and Potter (Proc. Soc. Exp. Biol. Med., vol. 72, pp. 1-9 (1949)), in which the level of inhibited enzyme activity is determined in the presence of different amounts of enzyme.
as §1

CEM-T4 lymphocytes = conditions: 100 μM, added twice-daily; cited from earlier work
epithelial fibroblasts = conditions: cited from earlier work
HTLVIIIB = conditions: 100 μM, added twice-daily, CEM-T4 lymphocytes; cited from earlier work
[3] = system: cystine crystals found in the corneas; conditions: topical aqueous 0.1% and 0.5%; cited from earlier work
[4] = 1 mg/ml test agent, 10 min preincubation

Compound: nonylphenoxypolyoxyethene glycol [nonoxynol-9, reference compound]
- % Inhibition (growth of vaginal lactobacillus) (Lactobacillus gasseri; Tested at 0.5 mg/ml): 60%
- % Inhibition at 1 mg/ml (hyaluronidase) [1, 4]: 4%

Compound: NCCSSCCN [Cystamine]
- Activity against the HIV pathogen (HIV): substantial activity
- Cytotoxicity ([2]; 100 μM): little cytotoxicity

Compound: NCCS [cysteamine, Cysteamine]
- Spermicide (effect on sperm motility, in words) (motile spermatozoa): reduce sperm motility
- Spermicide (effect on sperm motility, in words) (motile spermatozoa; listed as Cysteamine): Yes
- Acrosin Activity (Human acrosin; cysteamine 0.08 mg/ml): 5.2 ± 0.74 μmoles BAEE hydrolyzed/min/mg
- Acrosin Activity (Human acrosin; cysteamine 0.10 mg/ml): 3.8 ± 0.32 μmoles BAEE hydrolyzed/min/mg
- Acrosin Activity (Human acrosin; cysteamine 0.25 mg/ml): 3.4 ± 0.10 μmoles BAEE hydrolyzed/min/mg
- Acrosin Activity (Human acrosin; cysteamine 0.50 mg/ml): 2.2 μmoles BAEE hydrolyzed/min/mg
- Acrosin Activity (Human acrosin; cysteamine 0.8 mg/ml): 0.9 ± 0.28 μmoles BAEE hydrolyzed/min/mg
- Acrosin Activity (Human acrosin; cysteamine 1.0 mg/ml): 0.6 μmoles BAEE hydrolyzed/min/mg
- 3 Log reduction (99.9% inhibition) of acrosin (Human acrosin; from fitted curve, above highest tested concentration): 3.3 mg/ml
- IC99.9 (Human acrosin; from fitted curve, above highest tested concentration, read-out: 3 Log reduction (99.9% inhibition) of acrosin): 3270 µg/mL
- Reversibility of acrosin inhibition (Human acrosin; method of Ackermann and Potter, different amounts of enzyme): consistent with a reversible mechanism of inhibition
- Acrosin Inhibitor (active yes/no) (Human acrosin): active
- Acrosin Inhibitor (active yes/no) (Human acrosin; listed as Cysteamine): Yes
- IC50 (Human acrosin; summary table): 4.8 mM
- Toxicity (cell survival) (CEM-T4 lymphocytes): 120.8 % of control
- Antiviral effect against HIV (HIV; other cell lines and other HIV strains): substantiate the antiviral effect
- Cellular toxicity [2]: lack of cellular toxicity
- % Inhibition at 5 mg/ml (growth of vaginal lactobacillus) (Lactobacillus gasseri): no effect
- % Inhibition at 5 mg/ml (growth of vaginal lactobacillus) (Lactobacillus gasseri; listed as Cysteamine): No inhibition
- inhibition at 5000 µg/mL (Lactobacillus gasseri; Lactobacillus gasseri, read-out: % Inhibition at 5 mg/ml (growth of vaginal lactobacillus)): 0%
- IC20 [1]: 87 µg/mL (≈ 1130 µM)
- IC80 [1]: 219 µg/mL (≈ 2840 µM)
- % Inhibition at 1 mg/ml (hyaluronidase) [1, 4]: completely inhibit
- inhibition at 1000 µg/mL [1, 4]: 100%
- Absorbance at 545 nm, Reaction ([1]; cysteamine 1.6 μg/ml): 0.1892 and 0.1967
- Absorbance at 545 nm, Reaction ([1]; cysteamine 8.0 μg/ml): 0.1955 and 0.1853
- Absorbance at 545 nm, Reaction ([1]; cysteamine 40.0 μg/ml): 0.1775 and 0.1855
- Absorbance at 545 nm, Reaction ([1]; cysteamine 200 μg/ml): 0.0585 and 0.0656
- Absorbance at 545 nm, Reaction ([1]; cysteamine 1,000 μg/ml): 0.0068 and 0.0069
- Hyaluronidase Inhibitor (yes/no) ([1]; summary table): Yes
- Cloning efficiency (epithelial fibroblasts; 10 μM): severe loss in cloning efficiency
- Cloning efficiency (epithelial fibroblasts; One hundred μM): zero
- Doubling time (epithelial fibroblasts; One hundred μM): two-fold increase
- Effect on growth rate (epithelial fibroblasts; concentrations up to 10 μM): no effect on growth rate
- Survival of treated cells, protection against HTLVIIIB (HTLVIIIB): 133 % of control
- Reduction of corneal cystine crystals [3]: effective in reducing the cystine crystals
- Tolerability in chronic topical use [3]: well-tolerated
